Source: patent publication US8133685B2, “AMPK modulation as a method of regulating stem cell and cancer stem cell proliferation, self-renewal and differentiation” (Washington University, priority 2008, dated 2012)

Experiments:
[1] = system: Neural Stem and Progenitor cells (NPCs); assay: NPC proliferation: count of trypan blue negative (live) cells after 48 hours of growth; assay type: cell-based, mouse; conditions: E12.5 forebrain wildtype NPCs, vs DMSO, p<0.001
Method: FIG. 26. […] Embryonic day 12.5 forebrain wildtype NPCs were cultured for 4 days and seeded as single cells in presence of DMSO (control), or the AMPK inhibitors Compound C (10 μM) and Adenine 9-β-D-arabinofuranoside (Ara A 1 mM). Following 48 hours of growth in medium supplemented with EGF ([…]) and bFGF ([…]), neurospheres were trypsinized and trypan blue negative (live) cells were counted on a hemocytometer. * p<0.001
Neurospheres were dissected from E12.5 CNS telencephalic lobes and cultured in neurobasal medium supplemented with B27 and N2, as described previously (Dasgupta, B. and Gutmann, D. H., J. Neurosci. 25, 5584-5594, 2005). […] At each time point, resulting neurospheres were trypsinized and counted on a hemocytometer. For self-renewal assays, single neurospheres were picked up by pipette and neurosphere diameter was measured individually under microscope. Ten similar-sized neurospheres of each genotype were triturated individually before plating, and the number of resulting secondary neurospheres generated per primary neurosphere was counted after 6 days. Neurosphere diameters were measured using Metamorph software. […] Briefly, NPCs were pulse labeled with […] CFSE at 37° C. for 15 min, washed, and one-half of the cells were analyzed by FACS, while the other half was analyzed after 4 days of growth. […]

[2] = system: AMPK holoenzyme; assay: Nonradioactive in vitro kinase assay: immunoprecipitated AMPK holoenzyme phosphorylating recombinant Rb fusion protein (residues 701-928); assay type: biochemical, mouse; conditions: AMPK immunoprecipitated from WT NPCs, phospho-Rb800/804 immunoblot
Method: Nonradioactive in vitro kinase assay was performed as previously described (Lee et al., Nature 447, 1017-1020, 2007), with minor modifications. Briefly, WT NPCs were lysed with MAPK buffer, and AMPK was immunoprecipitated from WT NPCs with AMPKα1/2 antibody, washed with a buffer containing 10 mM Tris-Hcl (pH 7.5) and 0.5 M LiCl, and suspended in kinase buffer containing 0.5 mM ATP. CyclinD1/D2 (associated with CDK4/6) was immunoprecipitated with cyclinD1 and cyclinD2 antibodies. Reactions were carried out at 30° C. for 1 hr by adding RB-C fusion protein (residues 701-928; Cell Signaling Technology, Beverly, Mass.) to the reaction mix. Reaction was terminated by adding 6× Laemmli buffer and boiling for 5 min. Samples were resolved in 10% SDS-PAGE, and Western blot analysis was performed with phospho-RbSer^800/804 (Ser^807/811 in human) antibody (Cell Signaling Technology).
The CDK-cyclin D complex is known to phosphorylate Rb at Ser804. […] CDK4/6, which exist in complexes with cyclinD1/D2, were immunoprecipitated using cyclin D1/2 antibodies, and the activity was measured by nonradioactive in vitro kinase assays using bacterially produced Rb fusion protein (residues 701-928) as the substrate. […] In these experiments, phosphorylation was monitored by immunoblot using phosphor-Rb800/804 antibody. […]

[3] = system: AMPK; assay: Immunoblot of pAMPK and pRb in WT NPCs after growth factor (EGF and FGF) withdrawal and re-administration; assay type: cell-based, mouse; conditions: growth factors withdrawn 2 h, re-administered 1 h in presence of compound C (CC; 5 mM per FIG. 54 legend)
Excerpt: FIG. 54. This figure illustrates that energy restriction and growth factor signaling utilize the AMPK-Rb axis to enhance NPC proliferation. […] (B and C) Proliferation assay of WT NPCs (B) and β1−/−NPCs (C) cultured for 48 hr under glucose-limiting conditions (Cont=25 Mm glucose, which is the amount in neurobasal medium). Data are representative of three independent experiments (#p=0.07; *p % 0.005). Error bars indicate SD. (D and E) Densitometric analysis using phospho-specific AMPKα^Thr172, Rb^Ser800/804, ACC^Ser79, and pan AMPKα, Rb, and ACC antibodies. AU, arbitrary units.
Cultured NPCs or MEFs were lysed with MAPK lysis buffer (20 mM Tris-HCL, pH 7.5, 150 mM, NaCl, 1 mM EGTA, 1 mM EDTA, 1% TritonX-100, 2.5 mM sodium pyrophosphate, 1 mM β-glycerophosphate, 1 mM sodium vanadate, 1 mM PMSF, 1 mM DTT and protease inhibitor cocktail). AMPK was immunoprecipitated with AMPKα1/2 antibody (Cell Signaling Technology), Rb was immunoprecipitated with Rb antibody (Santa Cruz Biotechnology, Santa Cruz, Calif.) and cyclinD1/D2 (associated with CDK4/6) was immunoprecipitated with CyclinD1 and CyclinD2 antibodies (Cell Signaling Technology). […] The immunoprecipitated proteins were analyzed by standard immunoblot analysis. […]

[4] = system: WT NPCs; assay: Proliferation assay of WT NPCs cultured 48 hr under glucose-limiting conditions; assay type: cell-based, mouse; conditions: 2.5-25 mM glucose
Method: FIG. 54. This figure illustrates that energy restriction and growth factor signaling utilize the AMPK-Rb axis to enhance NPC proliferation. (A) Densitometric analysis of WT NPCs using indicated antibodies after 2-hr growth factor stimulation in the presence or absence of AMPK inhibitor compound C (CC; […]). (B and C) Proliferation assay of WT NPCs (B) and β1−/−NPCs (C) cultured for 48 hr under glucose-limiting conditions (Cont=25 Mm glucose, which is the amount in neurobasal medium). Data are representative of three independent experiments (#p=0.07; *p % 0.005). Error bars indicate SD. […]
Neurospheres were dissected from E12.5 CNS telencephalic lobes and cultured in neurobasal medium supplemented with B27 and N2, as described previously (Dasgupta, B. and Gutmann, D. H., J. Neurosci. 25, 5584-5594, 2005). […] At each time point, resulting neurospheres were trypsinized and counted on a hemocytometer. For self-renewal assays, single neurospheres were picked up by pipette and neurosphere diameter was measured individually under microscope. Ten similar-sized neurospheres of each genotype were triturated individually before plating, and the number of resulting secondary neurospheres generated per primary neurosphere was counted after 6 days. Neurosphere diameters were measured using Metamorph software. […]

[5] = system: Rb-E2F1; assay: Immunoprecipitation with Rb antibody and Western blot with E2F1 antibody from NPCs; assay type: cell-based, mouse; design: dose or concentration left out as unconfirmed; conditions: NPCs grown in indicated glucose concentration
Method: FIG. 56. This figure illustrates that energy restriction and growth factor signaling utilize the AMPK-Rb axis to enhance NPC proliferation. (A) Immunoprecipitation assay using Rb antibody and Western blot with E2F1 antibody from NPCs grown in the indicated glucose concentration in the absence or presence of CC ([…]). (B) Immunohistochemistry of saggital sections of E14.5 wildtype and β1−/− body using pHistoneH3 antibody (red).
Cultured NPCs or MEFs were lysed with MAPK lysis buffer (20 mM Tris-HCL, pH 7.5, 150 mM, NaCl, 1 mM EGTA, 1 mM EDTA, 1% TritonX-100, 2.5 mM sodium pyrophosphate, 1 mM β-glycerophosphate, 1 mM sodium vanadate, 1 mM PMSF, 1 mM DTT and protease inhibitor cocktail). […] The immunoprecipitated proteins were analyzed by standard immunoblot analysis. […]
AMPK is integrally involved in regulating cellular energy homeostasis and is activated by low cellular ATP levels, such as occurs by limiting oxygen or glucose supplies or exercise, conditions that enhance proliferative capacity of stem cells (Burgers et al., Exp. Brain Res. 188, 33-43, 2008; Fu et al., Diabetologia 49, 1027-1038, 2006; Stolzing et al., Rejuvenation Res. 9, 31-35, 2006). To explore whether the proliferative effects of glucose restriction are manifested through activation of the AMPK-Rb axis, we monitored the growth of WT NPCs cultured in 2.5-25 mM (the amount present in neurobasal medium) glucose for 48 hr. […]

## Nc1ncnc2c1ncn2[C@@H]1O[C@H](CO)[C@@H](O)[C@@H]1O [Ara A, Adenine 9-β-D-arabinofuranoside]
[1]; 1 mM
  proliferation of NPCs (live cell count): drastically reduces proliferation

## c1cc(-c2cnn3cc(-c4ccc(OCCN5CCCCC5)cc4)cnc23)ccn1 [Compound C, 6-[4-(2-piperidin-1-ylethoxy)-phenyl]-3-pyridin-4-ylpyrazolo[1,5-α]pyrimidine]
[2]
  AMPK phosphorylation of Rb at Ser804: could be inhibited
[3]
  increase in phosphoAMPK (pAMPK Thr172) on EGF and FGF re-administration: no increase
  increase in phosphoRb (Ser800/804) on EGF and FGF re-administration: no increase
[1]; 10 μM
  proliferation of NPCs (live cell count): drastically reduces proliferation
[4]
  NPC growth stimulation by low glucose: not observed
  neurosphere growth: severely inhibited
[5]
  Rb sequestration of E2F1 (Rb-bound E2F1): higher levels
